According to US20230241211A1, “BISPECIFIC ANTIBODY AGAINST CD3 AND CD20 IN COMBINATION THERAPY FOR TREATING DIFFUSE LARGE B-CELL LYMPHOMA” (GENMAB A/S, priority 2022, published 2023):

Legend:
T cells = test: T-cell activation with immobilized anti-CD3 in presence or absence of lenalidomide; type: cell-based; details: CD3 crosslinking with immobilized anti-CD3, lenalidomide 5 or 50 μM, 3 days; compared to no lenalidomide
Procedure: T cells were pre-incubated with assay medium or lenalidomide in the absence or presence of CD3 crosslinking by immobilized anti-CD3 for 3 days (as indicated on the x-axes), after which upregulation of CD69, CD25, PD-1 and LAMP-1 on CD4^+ and CD8^+ T cells was determined by flow cytometry. Data shown are geomean fluorescence intensities (FI) for four donors (each circle represents one condition for one donor). Pre-incubation conditions are shown on the x-axis.
(§1) Briefly, T cells were activated with immobilized anti-CD3 in the presence (5 or 50 μM) or absence of lenalidomide for 3 days. […] T cells that were activated in the presence or absence of lenalidomide were subsequently tested for their cytotoxic capacity in response to epcoritamab.

[1] = test system: CD20-expressing Daudi cells; test: Epcoritamab-induced T-cell-mediated cytotoxicity assay with lenalidomide-pretreated T cells; type: cell-based; details: T cells pre-treated with lenalidomide (5 or 50 μM) and anti-CD3 for 3 days, Daudi target cells, E:T ratio 2:1
Procedure: T cells were incubated with (5 or 50 μM) or without lenalidomide in the absence or presence of immobilized anti-CD3 for 3 days. […] Data shown are average percentages cytotoxicity ±SD of duplicates, normalized to medium control (no antibody, no lenalidomide).
as §1

[2] = test system: relapsed or refractory (R/R) B-NHL; highly refractory large B-cell lymphoma; details: epcoritamab monotherapy, n=157, cited from earlier work
[3] = highly refractory large B-cell lymphoma

| Compound | T-cell activation (upregulation of activation markers CD69, CD25 on the T cell surface, release of granzyme B and IFNγ) (T cells) | activity at lower epcoritamab concentrations [1] | maximum percent cytotoxicity ([1]; versus T cells without lenalidomide) | complete response (CR) rate [2, 3] | median duration of response (DOR) [2, 3] | overall response rate (ORR) [2, 3] | safety profile [2] |
| --- | --- | --- | --- | --- | --- | --- | --- |
| Nc1cccc2c1CN(C1CCC(=O)NC1=O)C2=O (stereo not shown) [lenalidomide, 3-(4-Amino-1-oxo-1,3-dihydro-2H-isoindol-2-yl) piperidine-2,6-dione] | increased T-cell activation | – | – | – | – | – | – |
| epcoritamab: IgG1 bispecific CD3×CD20 antibody; heavy/light chain pairs SEQ ID NOs: 24/25 and 26/27; CAS 2134641-34-0 | – | higher activity at lower epcoritamab concentrations | Higher maximum percent cytotoxicity | 39% | 12 months | 63% | manageable safety profile |
